{"source": "patent US20100075334A1", "about": "“METHYLATION BIOMARKER FOR EARLY DETECTION OF GASTRIC CANCER” (priority 2007, published 2010)", "test_system": "gastric cancer cell lines, SNU001, SNU601, and SNU668", "assay": "Reactivation analysis of silenced genes by drug treatment (RT-PCR)", "format": "cell-based, human", "settings": "for number of selected genes restored (summary): 5-aza and/or TSA treatment, of 26 epigenetic targets; for number of selected genes restored in the corresponding inactivated cells: after 5-Aza-dC and/or TSA treatment, gene-specific or cell-specific mode", "experimental": "To examine the correspondence between NotI-methylation and gene silencing at the neighboring region of the NotI site, RT-PCR analysis was performed for each selected gene with RNA of gastric cancer cell line. Reverse transcription using 5 μg of DNase-treated RNA was done using Superscript II reverse transcriptase (Invitrogen) in a reaction volume of 20 μL. One μL of the reverse transcription reaction was used for amplification using Platinum Taq DNA polymerase (Invitrogen). Amplification was done as follows: denaturation at 94° C. for 30 s, annealing at a primer specific annealing temperature for 30 s and extension at 72° C. for 45 s. All reactions were performed on a GeneAmp PCR System 9700 (Perkin-Elmer Corp.). Five μL of the PCR product were run on a 0.8% agarose gel and visualized by EtBr staining. GAPDH gene was used as a control for comparison of the amount of reverse transcribed template in each sample.\nThree gastric cancer cell lines, SNU001, SNU601, and SNU668, were treated with 5-aza-2′-deoxycytidine (5-Aza-dC; Sigma) as a demethylating agent and 5-Aza-dC and trichostatin A (TSA; Sigma) as a HDAC inhibitor to examine the restoring of selected genes in those cells. Each cell was plated at a density of 1×10^5 cells/100-mm dish and cultures for 24 h, followed by 72 h culture with 1 μM 5-Aza-dC. Other cells were also followed by 24 h culture with 250 nM TSA or 72 h 5-Aza-dC-treated cells for another 24 h. RNA was prepared and RT-PCR analysis was then performed using gene-specific primer set as described above. GAPDH gene was also used as a control.\nFor the selected 22 genes, reactivation analysis was examined in three gastric cancer cell lines by 5-Aza-dC and/or TSA treatment.", "data": [{"compound": "CC(/C=C/C(=O)NO)=C\\[C@@H](C)C(=O)c1ccc(N(C)C)cc1", "note": "[TSA, trichostatin A]", "values": [{"measurement": "number of selected genes restored (summary)", "result": "23 of 26"}, {"measurement": "number of selected genes restored in the corresponding inactivated cells", "result": 22, "unit": "genes"}]}, {"compound": "Nc1ncn([C@H]2C[C@H](O)[C@@H](CO)O2)c(=O)n1", "note": "[5-Aza-dC, 5-aza-2′-deoxycytidine]", "values": [{"measurement": "number of selected genes restored (summary)", "result": "23 of 26"}, {"measurement": "number of selected genes restored in the corresponding inactivated cells", "result": 22, "unit": "genes"}, {"measurement": "restoration of expression of POPDC3, NACM2, PRKD1 and AMPD3", "setting": "three gastric cancer cell lines, 1 μM 5-Aza-dC 72 h, RT-PCR, restored only by 5-Aza-dC", "result": "restored in two or three corresponding inactivated cells"}]}]}
